Each block holds one compound with its values, some of them ahead of it.
Key:
[1] = Hydrolysis kinetics of compounds 1-3 and their reduced forms (plate reader, mass spectrum); type: physicochemical; settings: for half-life: buffer; for compound detected in the buffer by mass spectrum: 6 hours
Source text: Engineering PEG-lipids to rapidly hydrolyze in endosomes has the potential to generate LNPs that have high levels of PEGylation and also transfect cells efficiently^10, 19, 20. The PEG-lipid reduces LNP toxicity and enhances LNP diffusion through tissue. However, LNPs are currently made with 0.5-1.5 mole percent of the PEG-lipid because increasing PEGylation levels beyond these levels can have detrimental effects. For example, the PEG-lipid lowers endosomal disruption by preventing the mixing of the ionizable lipid with endosomal lipids^20, 21 and causes the formation of anti-PEG antibodies^22. LNPs made with acid-degradable PEG-lipids should transfect cells efficiently even at high levels of PEGylation because they will hydrolyze off the LNP after endocytosis and will be released from the LNP surface. In addition, the immunogenicity of PEG dramatically increases after conjugation to lipids, and acid-degradable PEG-lipids may also have lower immunogenicity than traditional PEG-lipids because they will rapidly generate free PEG after endocytosis^22, 23.

[2] = Acid-catalyzed hydrolysis kinetics of model azido-acetal 4 and its reduced form 5; type: physicochemical
Source text: RD-LNPs are based upon the rapid hydrolysis of the azido-acetal linker at pH 6.0. We synthesized the model azido-acetal 4 and measured its acid-catalyzed hydrolysis rate before and after reduction to investigate whether reductive activation accelerates the hydrolysis kinetics of an azido-acetal. […] The azido-acetal has the stability needed for performing multi-step organic reactions and should enable the development of new materials that are hypersensitive to acidic conditions. […] In addition, the reduced azido-acetal hydrolyzes with a t1/2<30 minutes at pH 6.0 and has the hydrolysis kinetics needed to degrade in endosomes before trafficking to lysosomes occurs4. The two-step hydrolysis mechanism of the azido-acetal overcomes the stability problems preventing the development of rapidly hydrolyzing lipids and provides a general strategy for developing lipids and materials that rapidly hydrolyze at endosomal pHs.

[3] = DTT reduction kinetics of compound 4; type: physicochemical
[4] = IL-22 protein; cited from earlier work

Compound: COCCOCCOCCOCCOCCOCCOCCOCCOCCOCCOCCOCCOCCOCCOCCOCCOCCOCCOCCOCCOCCOCCOCCOCCOCCOCCOCCOCCOCCOCCOCCOCCOCCOCCOCCOCCOCCOCCOCCOCCOCCOCCOCCOCCOCCOC(=O)NCCOC(OCCNC(=O)O[C@H]1CC[C@@]2(C)C(=CC[C@H]3[C@@H]4CC[C@H]([C@H](C)CCCC(C)C)[C@@]4(C)CC[C@@H]32)C1)c1ccc(N=[N+]=[N-])cc1 (some centres unmarked) [Compound 1]
half-life ([1]; pH 4.0, read-out: t1/2 (minute) pH 4.0): 54.8 ± 3.89 min | half-life ([1]; pH 5.0, read-out: t1/2 (minute) pH 5.0): 192 ± 28.3 min | half-life ([1]; pH 6.0, cell prints day, read-out: t1/2 pH 6.0): 4280 min | half-life ([1]; pH 7.4, cell prints day, read-out: t1/2 pH 7.4 (converted)): 28500 min

Compound: CC(C)CCC[C@@H](C)[C@H]1CC[C@H]2[C@@H]3CC=C4C[C@@H](OC(=O)NCCOC(OCC[N+](C)(C)C)c5ccc(N=[N+]=[N-])cc5)CC[C@]4(C)[C@H]3CC[C@]12C (some centres unmarked) [Compound 3]
compound detected in the buffer by mass spectrum ([1]; pH 4 and pH 5, 37° C.): nearly no compound 3 was detected | compound detected in the buffer by mass spectrum ([1]; pH 6 and pH 7.4, 37° C.): a large amount

half-life ([2]; buffer, pH 4): 0.0567 ± 0.00133 h | half-life ([2]; buffer, pH 5): 0.619 ± 0.0115 h | half-life ([2]; buffer, pH 6): 8.57 ± 0.117 h | half-life ([2]; pH 7.4): 507 h | predicted hydrolysis half-life ([2]; pH 7.4): 21 days | hydrolysis after 6.5 hours ([2]; pH 7.4, 6.5 hours): under 1% | half-life ([3]; 10 mM DTT solution (chemical reduction), read-out: DTT reduction t1/2 (minute) 10 mM): 26.4 ± 3.37 min | half-life ([3]; 25 mM DTT solution (chemical reduction), read-out: DTT reduction t1/2 (minute) 25 mM): 14.2 ± 0.5 min | half-life ([3]; 50 mM DTT solution (chemical reduction), read-out: DTT reduction t1/2 (minute) 50 mM): 11.9 ± 1.85 min | half-life ([3]; 100 mM DTT solution (chemical reduction), read-out: DTT reduction t1/2 (minute) 100 mM): 7.21 ± 0.11 min
Compound: COC(=O)NCCOC(OCCNC(=O)OC)c1ccc(N=[N+]=[N-])cc1 [Compound 4]

Compound: IL-22: soluble IL-22 protein, cytokine
circulation half-life [4]: under 2 hours
